Data: patent US6531139B1, “Self-emulsifying formulation for lipophilic compounds” (Pharmacia & Upjohn Company, priority 1997, dated 2003)

Assay: aqueous solubility in buffer
Assay type: physicochemical
Conditions: buffer of pH 6.5 (close to the pH of the intestine)
Protocol: However, like many other HIV protease inhibitors, these compounds are characteristically lipophilic and thus poorly water soluble. For example, the compound of formula I has an aqueous solubility about 1 μg/ml in the buffer of pH 6.5 (close to the pH of the intestine), which is considered as extremely poor aqueous solubility and would be expected to provide very low oral bioavailability in the free acid form.

**Q.** With `CCC[C@@]1(CCc2ccccc2)CC(O)=C([C@H](CC)c2cccc(NS(=O)(=O)c3ccc(C(F)(F)F)cn3)c2)C(=O)O1` [compound of formula I] as the compound, how does the solubility read?
**A.** Its solubility is ~1 µg/mL.
